Experimental data as given in patent US20120316169A1, “2-ARYL-PROPIONAMIDE DERIVATIVES USEFUL AS BRADYKININ RECEPTOR ANTAGONISTS AND PHARMACEUTICAL COMPOSITIONS CONTAINING THEM” (DOMPÉ S.P.A., priority 2009, published 2012).

Target: T1, BKB1 receptors (Homo sapiens, UniProt P46663)
T1 construct: Human (IMR-90) lung fibroblast cells expressing native B1 receptors; endogenous in cells; host or cells: IMR-90 human lung fibroblasts, interleukin-treated to up-regulate BKB1 receptors
T1 sequence (P46663 1-353): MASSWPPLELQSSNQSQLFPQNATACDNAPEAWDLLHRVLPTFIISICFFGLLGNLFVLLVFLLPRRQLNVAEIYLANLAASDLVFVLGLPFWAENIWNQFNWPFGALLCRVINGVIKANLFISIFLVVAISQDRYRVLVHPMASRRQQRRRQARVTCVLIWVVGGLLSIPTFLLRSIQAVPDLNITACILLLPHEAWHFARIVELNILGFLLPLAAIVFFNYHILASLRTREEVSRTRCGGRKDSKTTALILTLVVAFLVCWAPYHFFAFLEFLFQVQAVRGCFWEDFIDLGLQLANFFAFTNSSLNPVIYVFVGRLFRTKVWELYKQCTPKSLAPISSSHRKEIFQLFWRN
Experiment: Calcium mobilization assay (FLIPR), B1 receptors in IMR-90 cells
Assay type: cell-based
Settings: Human IMR-90 lung fibroblast cells, up-regulated BKB1 receptors, agonist desArg10-kallidin (DAKD) 2 to 8 nM, calcium-dependent fluorescence
Protocol: Calcium mobilization assay (FLIPR)—Human (IMR-90) lung fibroblast cells expressing native B1 receptors were harvested by trypsinization and seeded into black wall/clear bottom 96-well plates (Costar 3904; Corning Life Sciences, Acton, Mass.) at approximately 13,000 cells/well. After 1 day incubation, cells were treated with […] (0.35 ng/ml) in 10% FBS/MEM for 2 h to up-regulate BKB1 receptors. Induced cells were loaded with fluorescent calcium indicator by incubation with 2.3 μM Fluo-4/acetoxymethyl ester (Invitrogen) at 37° C. for 1.5 h in the presence of an anion transport inhibitor (2.5 mM probenecid in 1% FBS/MEM). Extracellular dye was removed by washing with assay buffer (2.5 mM probenecid, 0.1% BSA in 20 mM HEPES/HBSS without bicarbonate or phenol red, pH 7.5) and cell plates were kept in the dark until used. Test compounds were assayed at eight concentrations in triplicate. Addition of test compounds to the cell plate and incubation for 5 min at 35° C., followed by the addition of 2 to 8 nM final BK1 agonist desArg^10-kallidin (DAKD, 3×EC50) was carried out in the fluorimetric imaging plate reader (FLIPR; Molecular Devices) while continuously monitoring calcium-dependent fluorescence.

Row | Compound | IC50 [µM]
1 | CC(F)(C(=O)Nc1ccsc1S(N)(=O)=O)c1cccc(Nc2nc(C(F)(F)F)cs2)c1 (centres unmarked) [Compound 4, 2-fluoro-N-(2-sulfamoylthiophen-3-yl)-2-(3-{[4-(trifluoromethyl)-1,3-thiazol-2-yl]amino}phenyl)propanamide] | 4.27
2 | CCCC/C=C/c1cccc(C(C)C(=O)NCCNC(C)C)c1 (centres unmarked) [Compound 27, 2-{3-[hex-1-en-1-yl]phenyl}-N-[2-(propan-2-ylamino)ethyl]propanamide] | 8.51
3 | COc1cc(Nc2cccc(C(C)C(=O)Nc3ccncn3)c2)cc(C(F)(F)F)c1 (centres unmarked) [Compound 55, 2-(3-{[3-methoxy-5-(trifluoromethyl)phenyl]amino}phenyl)-N-(pyrimidin-4-yl)propanamide] | 5.25
4 | CC(C(=O)Nc1ccncn1)c1cccc(Nc2ccc(N3CCOCC3)cc2)c1 (centres unmarked) [Compound 15, 2-(3-{[4-(morpholin-4-yl)phenyl]amino}phenyl)N-(pyrimidin-4-yl)propanamide] | 9.12
5 | C=C(C)CNC(=O)C(C)c1cccc(C(=O)c2cccs2)c1 (centres unmarked) [Compound 23, N-(2-methylprop-2-en-1-yl)-2-[3-(thiophen-2-ylcarbonyl)phenyl]propanamide] | 21.9
6 | CC(C(=O)NCCC1CCN(c2ccncc2)CC1)c1ccc(Nc2ccccc2-n2cccc2)cc1 (centres unmarked) [Compound 70, N-{2-[1-(pyridin-4-yl)piperidin-4-yl]ethyl}-2-(4-{[2-(1H-pyrrol-1-yl)phenyl]amino}phenyl)propanamide] | 0.708
7 | Cc1cc(NC(=O)C(C)c2cccc(C(=O)c3cccs3)c2)n(C)n1 (centres unmarked) [Compound 24, N-(1,3-dimethyl-1H-pyrazol-5-yl)-2-[3-(thiophen-2-ylcarbonyl)phenyl]propanamide] | 7.41
8 | CCNC(=O)C(C)c1cccc(Nc2cc(OC)cc(C(F)(F)F)c2)c1 (centres unmarked) [Compound 56, N-ethyl-2-(3-{[3-methoxy-5-(trifluoromethyl)phenyl]amino}phenyl)propanamide] | 7.76
9 | COc1cccc(CN(C)CCCNC(=O)C(C)c2ccc(OS(=O)(=O)C(F)(F)F)cc2)c1 (centres unmarked) [Compound 50, 4-(1-{[3-[3-methoxybenzyl(methyl)amino]propyl}amino-1-oxopropan-2-yl)phenyl trifluoromethanesulfonate] | 3.63
10 | CCc1cc(NC(=O)C(C)c2ccc(Nc3nc(C(F)(F)F)co3)cc2)[nH]n1 (centres unmarked) [Compound 29, N-(3-ethyl-1H-pyrazol-5-yl)-2-(4-{[4-(trifluoromethyl)-1,3-oxazol-2-yl]amino}phenyl)propanamide] | 7.08
11 | CC(C)Cc1ccc(C(C)C(=O)Nc2ccncc2)cc1 (centres unmarked) [Compound 37, 2-[4-(2-methylpropyl)phenyl]-N-(pyridin-4-yl)propanamide] | 1.38
12 | COc1cccc(CN(C)CCNC(=O)C(C)c2ccc(Nc3nc(C(F)(F)F)co3)cc2)c1 (centres unmarked) [Compound 31, N-{2-[(3-methoxybenzyl)(methyl)amino]ethyl}-2-(4-{[4-(trifluoromethyl)-1,3-oxazol-2-yl]amino}phenyl)propanamide] | 7.76
13 | CC(C(=O)NCCCN(C)C)c1ccc(Oc2cccc3ccccc23)cc1 (centres unmarked) [Compound 62, N-[3-(dimethylamino)propyl]-2-[4-(naphthalen-1-yloxy)phenyl]propanamide] | 3.8
14 | CC(C(=O)Nc1ccncn1)c1cccc(NC2CC2)c1 (centres unmarked) [Compound 14, 2-[3-(cyclopropylamino)phenyl]-N-(pyrimidin-4-yl)propanamide] | 6.31
15 | CC(C(=O)Nc1ccncn1)c1ccc(Oc2ccc(F)cc2)cc1 (centres unmarked) [Compound 72, 2-[4-(4-fluorophenoxy)phenyl]-N-(pyrimidin-4-yl)propanamide] | 3.39
16 | COc1cc(Nc2cccc(C(C)C(=O)NCC(C)(C)N)c2)cc(C(F)(F)F)c1 (centres unmarked) [Compound 58, N-(2-amino-2-methylpropyl)-2-[3-{[3-methoxy-5-(trifluoromethyl)phenyl]amino}phenyl]propanamide] | 5.89
17 | CC(C(=O)NCC(C)(C)N)c1cccc(Oc2cccc(OC(F)(F)F)c2)c1 (centres unmarked) [Compound 18] | 2.09
